One assay concerns the target human Nav1.7 (Homo sapiens (Human), UniProt Q15858). The assay can be described thus: FLIPR or FLIPR TETRA sodium dye assay with KCl and test article pre-incubation. The format is cell-based. An excerpt: For dominant selection of the Nav1.7-expressing clones, the expression plasmid co-expressed the neomycin resistance gene. […] Recombinant beta and gamma subunits were not introduced into this cell line. Additional cell lines expressing recombinant Nav1.7 cloned from other species can also be used, alone or in combination with various beta subunits, gamma subunits or chaperones.
Cell maintenance: Unless otherwise noted, cell culture reagents were purchased from Mediatech of Herndon, Va. The recombinant Nav1.7/HEK293 cells were routinely cultured in growth medium consisting of Dulbecco's […] containing 10% fetal bovine serum (FBS, Hyclone, Thermo Fisher Scientific, Logan, Utah), 100 U/mL penicillin, […], 2-4 mM L-glutamine, and […]. For natural, non-recombinant cell lines, the selective antibiotic was omitted, and additional media formulations can be applied as needed.
The intensity of this emission, but not the wavelength range, is increased when the dye is exposed to Na^+ ions, which it can bind with partial selectivity. Cells expressing Nav1.7 or other sodium channels were loaded with the CoroNa™ Green dye immediately in advance of the fluorescence assay, and then, after agonist stimulation, the mobilization of Na^+ ions was detected as the Na^+ ions flowed from the extracellular fluid into the cytoplasm through the activated sodium channel pores. The dye was stored in the dark as a lyophilized powder, and then an aliquot was dissolved immediately before the cell loading procedure, according to the instructions of the manufacturer to a stock concentration of 10 mM in DMSO. It was then diluted in the assay buffer to a 4× concentrated working solution, so that the final concentration of dye in the cell loading buffer was 5 μM.
These scorpion toxins inhibit the fast inactivation of their cognate target channels. Stock solutions of the agonists were prepared to 40 mM in DMSO (veratridine) and 1 mg/mL in dH2O (scorpion venom), and then diluted to make a 4× or 2× stock (depending on the particular assay) in assay buffer, the final concentration being 100 μM (veratridine) and 10 μg/mL (scorpion venom). Both of the agonists were purchased from Sigma Aldrich, St. Louis, Mo.
Test Compounds: Test compounds were dissolved in DMSO to yield 10 mM stock solutions. […] If a particular test article appeared to be especially potent, then the concentration curve was adjusted, e.g., to 10-fold lower concentrations, in order to perform the dose-response in a more relevant concentration range. Compound dilutions were added during the dye-loading and pre-stimulation step, and then again during the fluorescence assay, early in the kinetic read.
Data Analysis: The data were analyzed according to methods known to those skilled in the art or using the GraphPad® Prism 4.0 Program (available from GraphPad Software, San Diego, Calif.) to determine the IC50 value for the test article. At least one standard reference compound was evaluated during each experiment.
FLIPR® or FLIPR^TETRA® sodium dye assay with KCl and test article pre-incubation: Cells were prepared by plating the recombinant HEK293 cells or other host cells expressing either recombinant or non-recombinant, native, Nav1.7 alpha subunit, alone or in combination with various beta and gamma subunits at a density of ˜40,000 cells/well into a 96-well black, clear-bottom, PDL-coated plate. The assay can be adapted to 384-well or 1,536-well format, if desired, using proportionately less cells and media. […] For counter-screens of other voltage-gated sodium channels, the procedure was very similar, though optimal densities of cells, media and subsequent assay components can be fine-tuned for the particular cell line or isoform.

For another assay, the target named is hNav1.7 (Homo sapiens (Human), UniProt Q15858). The assay is described as follows: Electrophysiology (EP) assay, whole-cell patch clamp. It counts as cell-based. To be noted: read-out: EP Nav1.7 Ki. Here is the method: Cells: The hNav1.7 expressing HEK-293 cells were plated on 35 mm culture dishes pre-coated with poly-D-lysine in standard DMEM culture media (Mediatech, Inc., Herndon, Va.) and incubated in a 5% CO2 incubator at 37° C. Cultured cells were used approximately 12-48 hours after plating.
hNav1.7, sequence (Q15858 other isoform, or with tags, fused parts or gaps): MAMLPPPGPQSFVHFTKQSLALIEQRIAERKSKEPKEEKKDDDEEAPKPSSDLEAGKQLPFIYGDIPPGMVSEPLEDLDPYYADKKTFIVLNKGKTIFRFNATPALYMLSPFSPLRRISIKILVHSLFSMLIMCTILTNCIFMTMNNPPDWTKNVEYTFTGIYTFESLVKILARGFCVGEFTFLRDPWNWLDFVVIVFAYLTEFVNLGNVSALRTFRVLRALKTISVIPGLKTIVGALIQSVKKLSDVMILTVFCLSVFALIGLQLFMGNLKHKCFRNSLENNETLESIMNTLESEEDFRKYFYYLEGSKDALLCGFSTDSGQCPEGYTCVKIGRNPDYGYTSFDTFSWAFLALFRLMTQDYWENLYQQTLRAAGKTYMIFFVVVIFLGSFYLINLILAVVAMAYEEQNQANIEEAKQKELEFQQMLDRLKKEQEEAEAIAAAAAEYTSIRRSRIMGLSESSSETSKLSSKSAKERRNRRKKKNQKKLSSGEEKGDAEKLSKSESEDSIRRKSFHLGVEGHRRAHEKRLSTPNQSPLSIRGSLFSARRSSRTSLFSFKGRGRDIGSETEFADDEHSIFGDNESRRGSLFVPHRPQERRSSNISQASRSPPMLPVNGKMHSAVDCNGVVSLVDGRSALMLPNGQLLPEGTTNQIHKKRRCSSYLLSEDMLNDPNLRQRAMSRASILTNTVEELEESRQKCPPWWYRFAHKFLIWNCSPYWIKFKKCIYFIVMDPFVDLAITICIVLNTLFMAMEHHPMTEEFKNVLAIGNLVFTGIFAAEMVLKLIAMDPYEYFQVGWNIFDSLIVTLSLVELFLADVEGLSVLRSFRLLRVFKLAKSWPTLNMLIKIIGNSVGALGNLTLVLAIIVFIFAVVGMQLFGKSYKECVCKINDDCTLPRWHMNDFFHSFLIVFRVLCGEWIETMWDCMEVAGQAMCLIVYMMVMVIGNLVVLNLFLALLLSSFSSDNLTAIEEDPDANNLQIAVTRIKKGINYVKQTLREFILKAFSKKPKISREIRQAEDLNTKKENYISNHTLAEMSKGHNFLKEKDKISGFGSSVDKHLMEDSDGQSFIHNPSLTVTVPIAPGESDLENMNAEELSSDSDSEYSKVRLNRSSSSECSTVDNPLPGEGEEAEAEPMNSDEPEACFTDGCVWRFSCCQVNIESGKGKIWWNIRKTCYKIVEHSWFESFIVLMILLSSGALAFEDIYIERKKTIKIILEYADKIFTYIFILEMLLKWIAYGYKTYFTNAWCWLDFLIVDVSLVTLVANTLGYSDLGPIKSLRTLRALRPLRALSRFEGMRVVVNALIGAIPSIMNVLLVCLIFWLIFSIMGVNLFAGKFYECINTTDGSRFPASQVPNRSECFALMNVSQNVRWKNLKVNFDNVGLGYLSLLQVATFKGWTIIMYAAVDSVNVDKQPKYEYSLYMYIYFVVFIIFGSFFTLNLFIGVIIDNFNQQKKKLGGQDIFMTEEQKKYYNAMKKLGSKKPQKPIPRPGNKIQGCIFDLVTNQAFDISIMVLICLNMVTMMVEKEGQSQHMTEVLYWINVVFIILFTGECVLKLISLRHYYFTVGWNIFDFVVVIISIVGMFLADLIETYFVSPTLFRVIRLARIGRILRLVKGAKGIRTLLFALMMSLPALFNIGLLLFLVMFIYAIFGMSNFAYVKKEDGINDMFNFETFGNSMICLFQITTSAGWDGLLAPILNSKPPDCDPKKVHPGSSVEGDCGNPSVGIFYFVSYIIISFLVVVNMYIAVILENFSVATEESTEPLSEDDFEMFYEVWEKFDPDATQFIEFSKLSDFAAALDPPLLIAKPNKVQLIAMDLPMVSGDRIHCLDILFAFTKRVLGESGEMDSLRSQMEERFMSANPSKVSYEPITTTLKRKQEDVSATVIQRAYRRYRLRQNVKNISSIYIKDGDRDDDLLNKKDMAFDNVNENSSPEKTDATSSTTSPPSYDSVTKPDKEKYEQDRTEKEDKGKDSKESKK
Electrophysiology: On the day of experimentation, the 35 mm dish was placed on the stage of an inverted microscope equipped with a perfusion system that continuously perfuses the culture dish with fresh recording media. A gravity driven superfusion system was used to apply test solutions directly to the cell under evaluation. This system consists of an array of glass pipette glass connected to a motorized horizontal translator. The outlet of the shooter was positioned approximately 100 μm from the cell of interest.
Gigaseals were formed and the whole-cell configuration was established in voltage clamp mode, and membrane currents generated by hNav1.7 were recorded in gap-free mode. […] Signals were sampled at 50 kHz and low pass filtered at 3 kHz.
The voltage clamp protocol to examine hNav1.7 currents was as follows. First, the standard current-voltage relationship was tested by pulsing the cell from the holding voltage (Vh) of −120 mV by a series of 5 msec long square-shaped test pulses incrementing in +10 mV steps over the membrane voltage range of −90 mV to +60 mV at the pace of stimulation of 0.5 Hz. This procedure determines the voltage that elicits the maximal current (Vmax). […] This procedure determines the voltage of full inactivation (Vfull). Third, the cell was repeatedly stimulated with the following protocol, first in the absence of the test compound then in its presence. The protocol consisted of depolarizing the cell from the holding potential of −120 mV to the Vfull value for 4.5 seconds then repolarizing the cell to the holding potential for 10 ms before applying the test pulse to the Vmax for 5 ms. The amount of inhibition produced by the test compound was determined by comparing the current amplitude elicited by the test pulse in the absence and presence of the compound.
Vehicle solution used to establish base line was also contacting 0.3% DMSO.
Data analysis: Data was analyzed off-line using Clampfit software (pClamp, v. 8; Axon Instruments) and graphed using GraphPad Prizm (v. 4.0) software.
A general note: In patch-clamp work, channel activity is measured electrically.

[1] abbreviates: sodium dye assay with KCl, recombinant human Nav1.7 in HEK293 cells, value ± SEM.
The mark [2] stands for this setting: whole-cell patch clamp, hNav1.7 expressing HEK-293 cells.
Where [3] appears, read: read-out: FLIPR Nav1.7 IC50 (μM) ± SEM.

Read-outs that look alike come from different tables or passages of the source.

Usually IC50 stands for the concentration that gives 50% inhibition. The Ki is the equilibrium dissociation constant of an inhibitor or competing ligand from its target.

human Nav1.7, sequence (Q15858 other isoform, or with tags, fused parts or gaps): as above

With `N#Cc1cc(Oc2ccc(-n3cc(C(O)C(=O)NC[C@H](O)CO)c4ccccc43)cc2)ccc1C(F)(F)F` (stereo partly drawn) [Compound 69, 2-(1-(4-(3-Cyano-4-(trifluoromethyl)phenoxy)phenyl)-1H-indol-3-yl)-N—((S)-2,3-dihydroxypropyl)-2-hydroxyacetamide], the IC50 at human Nav1.7 (setting [1]) came to 0.732 ± 0.113 µM. Also, the Ki at hNav1.7 (setting [2]) was 2670 nM.
For `OC[C@@H](O)Cc1cn(C[C@H](O)CO)c2ccc(-c3ccc(Oc4ccc(F)cc4)cc3)cc12` [Compound 74, (2S,2′S)-3,3′-(5-(4-(4-Fluorophenoxy)phenyl)-1H-indole-1,3-diyl)bis(propane-1,2-diol)] the same measures were 0.5 ± 0.091 µM and 920 nM.
For `N#Cc1ccc(Oc2ccc(-n3cc(C[C@H](O)CO)c4ncccc43)cc2)cc1` [Compound 175, (S)-4-(4-(3-(2,3-Dihydroxypropyl)-1H-pyrrolo[3,2-b]pyridin-1-yl)phenoxy)benzonitrile], in that order: 0.549 ± 0.197 µM and 170 nM.
For `CN(C)CCc1cn(-c2ccc(Oc3ccccc3)cc2)c2ccc(C[C@H](N)CO)cc12` [Compound 48, (S)-2-Amino-3-[3-(2-(dimethylamino)ethyl)-1-(4-phenoxyphenyl)-1H-indol-5-yl]propan-1-ol], in that order: 3.82 ± 1.02 µM and 1310 nM.
For the compound `NC(=O)C(N)Cc1c[nH]c2ccc(-c3ccc(Oc4ccccc4)cc3)cc12` (stereo not drawn) [Compound 8, 2-Amino-3-[5-(4-phenoxyphenyl)-1H-indol-3-yl]propionamide], on human Nav1.7 (setting [1]), the IC50 came to 0.399 ± 0.024 µM. Besides, the Ki at hNav1.7 (setting [2]) was determined as 670 nM.
For `N#Cc1cc(Oc2ccc(-n3cc(C[C@H](O)CO)c4ccccc43)cc2)ccc1C(F)(F)F` [Compound 54, (S)-5-{4-[3-(2,3-Dihydroxypropyl)-1H-indol-1-yl]phenoxy}-2-(trifluoromethyl)benzonitrile] the same measures were 0.21 ± 0.035 µM and 70 nM.
For `COC(=O)c1ccc2c(C(O)C(N)=O)cn(-c3ccc(Oc4ccc(C(F)(F)F)c(C#N)c4)cc3)c2c1` (stereo not drawn) [Compound 65, Methyl 3-(2-amino-1-hydroxy-2-oxoethyl)-1-(4-(3-cyano-4-(trifluoromethyl)phenoxy)phenyl)-1H-indole-6-carboxylate], in that order: 0.536 ± 0.129 µM and 1910 nM.
As to `NC(=O)c1cccc2c1c(C[C@H](O)CO)cn2-c1ccc(Oc2ccc(F)cc2)cc1` [Compound 122, (S)-3-(2,3-Dihydroxypropyl)-1-(4-(4-fluorophenoxy)phenyl)-1H-indole-4-carboxamide], the IC50 on human Nav1.7 (setting [1]) is 0.222 ± 0.036 µM. At hNav1.7 (setting [2]), the Ki came out at 300 nM.
On to `NC(CO)Cc1c[nH]c2c(-c3ccc(Oc4ccccc4)cc3)cccc12` (stereo not drawn) [Compound 22, 2-Amino-3-[7-(4-phenoxyphenyl)-1H-indol-3-yl]propan-1-ol], for which the IC50 at human Nav1.7 (setting [3]) amounted to 0.151 ± 0.016 µM. Besides, on hNav1.7, the inhibitory constant (Ki) came to 830 nM.
With `NC(=O)C(N)Cc1cn(-c2ccc(Oc3ccccc3)cc2)c2ccccc12` (stereo not drawn) [Compound 35, 2-Amino-3-[1-(4-phenoxyphenyl)-1H-indol-3-yl]propionamide], the IC50 on human Nav1.7 (setting [1]) was found to be 0.278 ± 0.061 µM. The Ki on hNav1.7 (setting [2]) stood at 40 nM.
For the compound `NC(=O)c1nn(-c2ccc(Oc3ccc(C(F)(F)F)cn3)cc2)c2ccccc12` [Compound 155, 1-(4-((5-(Trifluoromethyl)pyridin-2-yl)oxy)phenyl)-1H-indazole-3-carboxamide], on human Nav1.7 (setting [3]), the IC50 was found to be 0.362 ± 0.06 µM. Besides, on hNav1.7, the Ki is 250 nM.
For `NC(CO)Cc1c[nH]c2ccc(-c3ccc(Oc4ccccc4)cc3)cc12` (stereo not drawn) [Compound 10, 2-Amino-3-[5-(4-phenoxyphenyl)-1H-indol-3-yl]propan-1-ol] the same measures were 0.296 ± 0.087 µM and 360 nM.
`NC(=O)C(N)Cc1c[nH]c2cc(-c3ccc(Oc4ccccc4)cc3)ccc12` (stereo not drawn) [Compound 15, 2-Amino-3-[6-(4-phenoxyphenyl)-1H-indol-3-yl]propionamide]: on human Nav1.7 (setting [1]), the IC50 was found to be 2.05 ± 0.094 µM.
As for `N#Cc1cc(Oc2ccc(-n3cc(C[C@@H](N)CO)c4ccccc43)cc2)ccc1C(F)(F)F` [Compound 44, (R)-5-{4-[3-(2-Amino-3-hydroxypropyl)-1H-indol-1-yl]phenoxy}-2-(trifluoromethyl)benzonitrile], the IC50 at human Nav1.7 (setting [1]) was found to be 0.304 ± 0.046 µM. In addition, the Ki on hNav1.7 (setting [2]) came out at 290 nM.
As for `N#Cc1cc(Oc2ccc(-n3cc(C[C@@H](O)CO)c4c(C(O)CO)cccc43)cc2)ccc1C(F)(F)F` (stereo partly drawn) [Compound 139, 5-(4-(4-(1,2-Dihydroxyethyl)-3-((R)-2,3-dihydroxypropyl)-1H-indol-1-yl)phenoxy)-2-(trifluoromethyl)benzonitrile], at human Nav1.7 (setting [1]), the IC50 is greater than 20 µM.
On the same count and under the same terms, as for `NC(=O)c1ccc2c(C[C@H](O)CO)cn(-c3ccc(Oc4ccc(F)cc4)cc3)c2c1` [Compound 123, (S)-3-(2,3-Dihydroxypropyl)-1-(4-(4-fluorophenoxy)phenyl)-1H-indole-6-carboxamide], the figure is 4.92 ± 0.822 µM; as for `CCOC(=O)C(N)Cc1c[nH]c2ccc(-c3ccc(Oc4ccccc4)cc3)cc12` (stereo not drawn) [Compound 7, 2-Amino-3-[5-(4-phenoxyphenyl)-1H-indol-3-yl]propionic acid ethyl ester], 0.481 ± 0.042 µM; as for `O=S(=O)(Nc1ccc(F)cc1)c1ccc(-n2cc(C[C@H](O)CO)c3ccccc32)cc1` [Compound 92, (S)-4-(3-(2,3-Dihydroxypropyl)-1H-indol-1-yl)-N-(4-fluorophenyl)benzenesulfonamide], 1.89 ± 0.164 µM.
For `OC[C@@H](O)Cc1cn(-c2ccc(Oc3ccc(C(F)(F)F)cc3)cc2)c2ccccc12` [Compound 80, (S)-3-(1-(4-(4-(Trifluoromethyl)phenoxy)phenyl)-1H-indol-3-yl)propane-1,2-diol], the IC50 at human Nav1.7 (setting [1]) was 0.524 ± 0.085 µM.
`NC(CO)Cc1cn(-c2ccc(Oc3ccccc3)cc2)c2ccccc12` (stereo not drawn) [Compound 34, 2-Amino-3-[1-(4-phenoxyphenyl)-1H-indol-3-yl]propan-1-ol]: at human Nav1.7 (setting [1]), the IC50 is 0.389 ± 0.081 µM. The Ki on hNav1.7 (setting [2]) was determined as 260 nM.
`NC(Cc1c[nH]c2ccc(-c3ccc(Oc4ccccc4)cc3)cc12)C(=O)O` (stereo not drawn) [Compound 9, 2-Amino-3-[5-(4-phenoxyphenyl)-1H-indol-3-yl]propionic acid]: the IC50 at human Nav1.7 (setting [1]) is greater than 20 µM.
`N#Cc1ccc(Oc2ccc(-n3cc(C[C@H](O)CO)c4ccccc43)cc2)cc1` [Compound 76, (S)-4-(4-(3-(2,3-Dihydroxypropyl)-1H-indol-1-yl)phenoxy)benzonitrile]: the IC50 on human Nav1.7 (setting [3]) was 0.501 ± 0.089 µM.

The values above are taken from US9212139B2, “Aryl substituted indoles and their use as blockers of sodium channels” (Purdue Pharma, L.P., priority 2010, dated 2015).
